# Literature values as cited in patent US20210060038A1, “COMPOSITIONS FOR ELIMINATING BACTERIAL PROMOTORS OF COLORECTAL CANCER BY INTRALUMINAL APPLICATION” (priority 2018, published 2021).
# Read-outs that look alike come from different tables or passages of the source.
# What was measured:
# [1] = tested on: IPEC-J2 cells; settings: IPEC-J2 cells exposed at 580 μg/mL, within 15 minutes
# [2] = not given; remark: listed apart in the source
# [3] = in vivo
# [4] = sealed sachets at room temperature
# [5] = tested on: mouse macrophage cell line
# [6] = tested on: Pseudomonas aeruginosa; settings: maximum
# [7] = tested on: resistant bacterial strains; settings: overall, controlled clinical trials, oral or intravenous
# [8] = tested on: anaerobic Bacteroides fragilis group of bacteria
# [9] = tested on: anaerobic genera Peptostreptococcus (including Peptoniphilus, Finegoldia and Anaerococcus)
# [10] = tested on: Staphylococcus, Streptococcus, Enterococcus, Neisseria, Escherichia, Proteus (indole-negative), Serratia, Salmonella, Shigella, Pseudomonas, Haemophilus, and …
# [11] = not given; remark: listed apart in the source
# [12] = tested on: anaerobic genus Fusobacterium
# [13] = tested on: indole-positive Proteus spp., Klebsiella and Enterobacter spp.
# [14] = tested on: polymorphonuclear leukocytes
# [15] = tested on: strains of organisms from the susceptible genera
# [16] = tested on: human macrophages; settings: extracellular concentrations 0.125 to 1 μg/mL
# [17] = tested on: human polymorphonuclear leukocytes; settings: rapid passive diffusion
compound,measurement,setting,value
C[C@@H]1O[C@@H]1P(=O)(O)O [Fosfomycin calcium monohydrate],intracellular concentration,[1],~30 µg/mL
same,pH of 0.4% solution,0.4% solution,8.1-9.6
same,solubility in water,[2]; calcium monohydrate,sparingly soluble in water
C[C@@H]1O[C@@H]1P(=O)(O)O [Fosfomycin disodium],bioavailability,[3],high bioavailability
same,pH of 5% solution,,9.0-10.5
same,solubility in water,[2],highly soluble in water
C[C@@H]1O[C@@H]1P(=O)(O)O.NC(CO)(CO)CO [Fosfomycin trometamol],stability of granulate,[4],long-term stability
same,pH of 5% solution,,3.5-5.5
same,solubility in water,[2],highly soluble in water
C[C@@H](O)[C@H]1C(=O)N2C(C(=O)O)=C(S[C@@H]3CN[C@H](C(=O)Nc4cccc(C(=O)O)c4)C3)[C@H](C)[C@H]12 [ertapenem],extracellular concentration giving bactericidal intracellular concentrations,[5],≥ 15 µg/mL
"C[C@@H]1O[C@@H]1P(=O)(O)O [fosfomycin, [(2R,3S)-3-methyloxiran-2-yl]phosphonic acid]",appearance of resistant bacterial strains,[6],15%
same,appearance of resistant bacterial strains,[7],3.0%
same,activity against Bacteroides fragilis group,[8],inactive
same,activity against Peptostreptococcus,[9],active
same,activity against aerobic genera,[10],active
same,eosinophilia,[11]; in vivo,0.2%
same,transient rashes (allergy),[11]; in vivo,0.3 % of cases
same,transiently raised liver enzymes,[11]; systemically administered,0.3 % of cases
same,activity against Fusobacterium,[12],active
same,"activity against indole-positive Proteus spp., Klebsiella and Enterobacter spp.",[13],less active
same,concentration in polymorphonuclear leukocytes relative to extracellular fluid,[14],up to twice those of the extracellular fluid
same,"synergistic effect, share of tested strains","[15]; early studies, various antibiotic combinations",70-100%
same,synergy rates,[15]; subsequent more extensive studies,36-74%
C[C@@H](O)[C@H]1C(=O)N2C(C(=O)O)=C(S[C@@H]3CN[C@H](C(=O)N(C)C)C3)[C@H](C)[C@H]12 [meropenem],cellular to extracellular concentration ratio,[16],3-12
Cc1ncc([N+](=O)[O-])n1CCO [metronidazole],activity against Bacteroides fragilis group,[8],active
same,activity against Fusobacterium,[12],active
same,time for intracellular levels to approach equilibrium with extracellular levels,[17],≤ 15 min
